According to ChEMBL document CHEMBL3885881, “DrugMatrix”:

Species on record: Rattus norvegicus
Experiment: DrugMatrix - Regimen: Daily Repeat
Assay type: toxicity, organism-based, Sprague-Dawley
Set-up: regimen Daily Repeat, gender Male, age 6-8 weeks
Details: in vivo, po, route oral GAVAGE, […]; for ABSOLUTE BASOPHIL / ABSOLUTE EOSINOPHIL / ABSOLUTE LYMPHOCYTE / ABSOLUTE MONOCYTE / ABSOLUTE SEGMENTED NEUTROPHIL / BASOPHIL / EOSINOPHIL / ERYTHROCYTE COUNT / HEMATOCRIT / HEMOGLOBIN / LEUKOCYTE COUNT / LYMPHOCYTE / MEAN CORPUSCULAR HEMOGLOBIN / MEAN CORPUSCULAR HEMOGLOBIN CONCENTRATION / MEAN CORPUSCULAR VOLUME / MONOCYTE / NEUTROPHIL / NUCLEATED RED BLOOD CELLS / PLATELET COUNT: tissue Blood; for ALANINE AMINOTRANSFERASE / ALBUMIN / ALKALINE PHOSPHATASE / ASPARTATE AMINOTRANSFERASE / BLOOD UREA NITROGEN / CARBON DIOXIDE / CHLORIDE / CHOLESTEROL / CREATINE PHOSPHOKINASE / CREATININE / GLUCOSE / LACTATE DEHYDROGENASE / LIPASE / PHOSPHORUS / POTASSIUM / SODIUM / TOTAL BILIRUBIN / TOTAL PROTEIN / URIC ACID: tissue Plasma
[1] = 0 mg/kg, 72 h, dose level Control, time 3 day
[2] = 0 mg/kg, 120 h, dose level Control, time 5 day
[3] = 12 mg/kg, 72 h, dose level Low, time 3 day

`COc1ncnc(NS(=O)(=O)c2ccc(N)cc2)c1OC` [SULFADOXINE] was tested, and the “ABSOLUTE BASOPHIL” value [1] was 0 CELLS/uL, the “ABSOLUTE EOSINOPHIL” value [1] was 41.83 CELLS/uL and the “ABSOLUTE LYMPHOCYTE” value [1] was 8545.5 CELLS/uL. The “ABSOLUTE MONOCYTE” value [1] was 240 CELLS/uL, the “ABSOLUTE SEGMENTED NEUTROPHIL” value [1] was 906 CELLS/uL and the BASOPHIL [1] was 0%. The EOSINOPHIL [1] was 0.33%, the “ERYTHROCYTE COUNT” value [1] was 5.6 x10E6/uL and the HEMATOCRIT [1] was 35.4%. The HEMOGLOBIN [1] was 13.42 G/DL, the “LEUKOCYTE COUNT” value [1] was 9.73 x10E3/uL and the LYMPHOCYTE [1] was 87.83%. The “MEAN CORPUSCULAR HEMOGLOBIN” value [1] was 23.98 pg, the “MEAN CORPUSCULAR HEMOGLOBIN CONCENTRATION” value [1] was 37.92 G/DL and the “MEAN CORPUSCULAR VOLUME” value [1] was 63.3 fL. The MONOCYTE [1] was 2.5%, the NEUTROPHIL [1] was 9.33% and the “NUCLEATED RED BLOOD CELLS” value [1] was 0 /100WBC. The “PLATELET COUNT” value [1] was 1032 x10E3/uL, the “ALANINE AMINOTRANSFERASE” value [1] was 72.83 u/L and the ALBUMIN [1] was 4 G/DL. For the same compound, the “ALKALINE PHOSPHATASE” value [1] was 322.83 u/L, the “ASPARTATE AMINOTRANSFERASE” value [1] was 102.67 u/L and the “BLOOD UREA NITROGEN” value [1] was 12 mg/dL. For the same compound, the “CARBON DIOXIDE” value [1] was 34.33 mmol/L, the CHLORIDE [1] was 97.67 MEQ/L and the CHOLESTEROL [1] was 82.5 mg/dL. The “CREATINE PHOSPHOKINASE” value [1] was 410.33 u/L, the CREATININE [1] was 0.18 mg/dL and the GLUCOSE [1] was 164.5 mg/dL. For the same compound, the “LACTATE DEHYDROGENASE” value [1] was 119.5 u/L, the LIPASE [1] was 11.83 u/L and the PHOSPHORUS [1] was 9.52 mg/dL. For the same compound, the POTASSIUM [1] was 5.56 MEQ/L, the SODIUM [1] was 142.48 MEQ/L and the “TOTAL BILIRUBIN” value [1] was 0.18 mg/dL. For the same compound, the “TOTAL PROTEIN” value [1] was 5.77 G/DL, the “URIC ACID” value [1] was 0.48 mg/dL and the “ABSOLUTE BASOPHIL” value [2] was 0 CELLS/uL. The “ABSOLUTE EOSINOPHIL” value [2] was 0 CELLS/uL, the “ABSOLUTE LYMPHOCYTE” value [2] was 9065 CELLS/uL and the “ABSOLUTE MONOCYTE” value [2] was 341.33 CELLS/uL. For the same compound, the “ABSOLUTE SEGMENTED NEUTROPHIL” value [2] was 527 CELLS/uL, the BASOPHIL [2] was 0% and the EOSINOPHIL [2] was 0%. The “ERYTHROCYTE COUNT” value [2] was 5.25 x10E6/uL, the HEMATOCRIT [2] was 34.08% and the HEMOGLOBIN [2] was 13.5 G/DL. The “LEUKOCYTE COUNT” value [2] was 9.93 x10E3/uL, the LYMPHOCYTE [2] was 91.17% and the “MEAN CORPUSCULAR HEMOGLOBIN” value [2] was 25.7 pg. For the same compound, the “MEAN CORPUSCULAR HEMOGLOBIN CONCENTRATION” value [2] was 39.62 G/DL, the “MEAN CORPUSCULAR VOLUME” value [2] was 64.93 fL and the MONOCYTE [2] was 3.33%. The NEUTROPHIL [2] was 5.5%, the “NUCLEATED RED BLOOD CELLS” value [2] was 0 /100WBC and the “PLATELET COUNT” value [2] was 1077.5 x10E3/uL. The “ALANINE AMINOTRANSFERASE” value [2] was 57.83 u/L, the ALBUMIN [2] was 4.07 G/DL and the “ALKALINE PHOSPHATASE” value [2] was 319.17 u/L. The “ASPARTATE AMINOTRANSFERASE” value [2] was 83.33 u/L, the “BLOOD UREA NITROGEN” value [2] was 13.67 mg/dL and the “CARBON DIOXIDE” value [2] was 30.83 mmol/L. The CHLORIDE [2] was 98.33 MEQ/L, the CHOLESTEROL [2] was 64.83 mg/dL and the “CREATINE PHOSPHOKINASE” value [2] was 263.67 u/L. For the same compound, the CREATININE [2] was 0.2 mg/dL, the GLUCOSE [2] was 182.83 mg/dL and the “LACTATE DEHYDROGENASE” value [2] was 124 u/L. The LIPASE [2] was 10.5 u/L, the PHOSPHORUS [2] was 10 mg/dL and the POTASSIUM [2] was 5.78 MEQ/L. For the same compound, the SODIUM [2] was 142.48 MEQ/L, the “TOTAL BILIRUBIN” value [2] was 0.2 mg/dL and the “TOTAL PROTEIN” value [2] was 6 G/DL. The “URIC ACID” value [2] was 0.7 mg/dL, the “ABSOLUTE BASOPHIL” value [3] was 0 CELLS/uL and the “ABSOLUTE EOSINOPHIL” value [3] was 0 CELLS/uL. The “ABSOLUTE LYMPHOCYTE” value [3] was 9669.67 CELLS/uL, the “ABSOLUTE MONOCYTE” value [3] was 359.33 CELLS/uL and the “ABSOLUTE SEGMENTED NEUTROPHIL” value [3] was 937.67 CELLS/uL. For the same compound, the BASOPHIL [3] was 0%, the EOSINOPHIL [3] was 0% and the “ERYTHROCYTE COUNT” value [3] was 5.36 x10E6/uL. The HEMATOCRIT [3] was 34.67%, the HEMOGLOBIN [3] was 13.5 G/DL and the “LEUKOCYTE COUNT” value [3] was 10.97 x10E3/uL. The LYMPHOCYTE [3] was 88.33%, the “MEAN CORPUSCULAR HEMOGLOBIN” value [3] was 25.23 pg and the “MEAN CORPUSCULAR HEMOGLOBIN CONCENTRATION” value [3] was 38.97 G/DL. For the same compound, the “MEAN CORPUSCULAR VOLUME” value [3] was 64.87 fL, the MONOCYTE [3] was 2.67% and the NEUTROPHIL [3] was 9%. For the same compound, the “NUCLEATED RED BLOOD CELLS” value [3] was 0 /100WBC, the “PLATELET COUNT” value [3] was 1062.67 x10E3/uL and the “ALANINE AMINOTRANSFERASE” value [3] was 67.67 u/L. For the same compound, the ALBUMIN [3] was 4 G/DL, the “ALKALINE PHOSPHATASE” value [3] was 358.33 u/L and the “ASPARTATE AMINOTRANSFERASE” value [3] was 91.33 u/L. For the same compound, the “BLOOD UREA NITROGEN” value [3] was 12.67 mg/dL, the “CARBON DIOXIDE” value [3] was 32.33 mmol/L and the CHLORIDE [3] was 98.33 MEQ/L. For the same compound, the CHOLESTEROL [3] was 76.33 mg/dL, the “CREATINE PHOSPHOKINASE” value [3] was 340.67 u/L and the CREATININE [3] was 0.29 mg/dL. For the same compound, the GLUCOSE [3] was 154.67 mg/dL, the “LACTATE DEHYDROGENASE” value [3] was 166 u/L and the LIPASE [3] was 10.67 u/L. For the same compound, the PHOSPHORUS [3] was 10.17 mg/dL, the POTASSIUM [3] was 5.55 MEQ/L and the SODIUM [3] was 143.6 MEQ/L. For the same compound, the “TOTAL BILIRUBIN” value [3] was 0.23 mg/dL, the “TOTAL PROTEIN” value [3] was 5.77 G/DL and the “URIC ACID” value [3] was 0.33 mg/dL.
